Measured values from patent US11753407B2, “Compounds for treating spinal muscular atrophy” (PTC Therapeutics, Inc., priority 2012, dated 2023).

Key:
[1] = system: Smn protein in SMA patient fibroblast cells (GM03813); experiment: Smn protein assay in cultured cells (SMN HTRF); format: cell-based, human; conditions: SMA patient fibroblast cells, 48 hours; for maximum fold (Fold) increase of Smn protein: 7-point concentration data, fold relative to vehicle control; for EC1.5x for Smn protein expression: 7-point concentration curve, SMN HTRF, concentration producing 1.5 times Smn protein vs DMSO vehicle control
Summary of the method: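 Read-out: HTRF 665/620 nm ratio, blank-subtracted as ΔF, then expressed as fold over DMSO vehicle. Fibroblasts from SMA patients were exposed to compounds for 48 h (7 points, 3.16-fold steps, triplicates). Values are EC1.5× and maximum fold Smn increase.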

[2] = system: SMN2 minigene mRNA (SMN2-A minigene) in HEK293H cells; experiment: SMN2 minigene mRNA splicing RT-qPCR assay in cultured cells; format: cell-based, human; conditions: Homo sapiens, HEK293-H; concentration increasing full length SMN2 mRNA 1.5-fold relative to vehicle-treated cells; HEK293H cells with SMN2-A minigene, 24 hours, 7-point concentration data; read-out: EC1.5x for production of full length SMN2 mRNA
Summary of the method: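 Read-out: minigene-specific full-length (exon 7-included) SMN2 mRNA by one-step multiplex RT-qPCR, normalized to GAPDH and divided by vehicle-treated level. Stable SMN2-A minigene HEK293H cells, 24 h compound exposure, 7 concentrations in duplicate. EC1.5× = concentration raising FL mRNA 1.5-fold.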

Row | SMILES | maximum fold (Fold) increase of Smn protein [1] | melting point | EC (1.5-fold increase) [2] | EC1.5x for Smn protein expression [1]
1 | CSc1ccc(-c2cc(=O)n3cc(N4CCNCC4)ccc3n2)cc1F [Compound 168, 2-[3-fluoro-4-(methylsulfanyl)phenyl]-7-(piperazin-1-yl)-4H-pyrido[1,2-a]pyrimidin-4-one] | * (A maximum fold increase of ≤1.2 is indicated by one star (*)) | 174 to 176 °C | 0.3 to 1 µM | 
2 | Cc1cn2cc(-c3cc(=O)n4cc(N5CCCN(C)CC5)ccc4n3)ccc2n1 [Compound 169, 7-(4-methyl-1,4-diazepan-1-yl)-2-(2-methylimidazo[1,2-a]pyridin-6-yl)-4H-pyrido[1,2-a]pyrimidin-4-one] | **** (a fold increase between >1.5 and ≤1.65 is indicated by four stars (****)) | 208 to 213 °C | < 0.1 µM | **** (an EC1.5x≤0.3 μM is indicated by four stars (****))
3 | Cc1nc2ccc(-c3cc(=O)n4cc(N5C[C@@H](C)N[C@@H](C)C5)ccc4n3)cc2o1 [Compound 172, 7-[(3R,5S)-3,5-dimethylpiperazin-1-yl]-2-(2-methyl-1,3-benzoxazol-6-yl)-4H-pyrido[1,2-a]pyrimidin-4-one] | ***** (a fold increase >1.65 is indicated by five stars (*****)) | 233 to 235 °C | < 0.1 µM | **** (an EC1.5x≤0.3 μM is indicated by four stars (****))
4 | COc1ncc(-c2cc(=O)n3cc(N4CCN[C@@H](C)C4)ccc3n2)cc1F [Compound 173, 2-(5-fluoro-6-methoxypyridin-3-yl)-7-[(3S)-3-methylpiperazin-1-yl]-4H-pyrido[1,2-a]pyrimidin-4-one] | ** (a fold increase between >1.2 and ≤1.35 is indicated by two stars (**)) | 175 to 180 °C | 0.3 to 1 µM | 
5 | COc1ncc(-c2cc(=O)n3cc(N4C[C@@H](C)N[C@@H](C)C4)ccc3n2)cc1F [Compound 174, 7-[(3R,5S)-3,5-dimethylpiperazin-1-yl]-2-(5-fluoro-6-methoxypyridin-3-yl)-4H-pyrido[1,2-a]pyrimidin-4-one] | ** (a fold increase between >1.2 and ≤1.35 is indicated by two stars (**)) | 160 to 165 °C | 1 to 3 µM | 
6 | Cc1nc2cc(-c3cc(=O)n4cc(N5C[C@@H](C)N[C@@H](C)C5)ccc4n3)ccc2s1 [Compound 175, 7-[(3R,5S)-3,5-dimethylpiperazin-1-yl]-2-(2-methyl-1,3-benzothiazol-5-yl)-4H-pyrido[1,2-a]pyrimidin-4-one] | **** (a fold increase between >1.5 and ≤1.65 is indicated by four stars (****)) | 208 to 212 °C | < 0.1 µM | *** (an EC1.5× between >0.3 μM and ≤1 μM is indicated by three stars (***))
7 | Cc1nc2cc(-c3cc(=O)n4cc(N5CCN(C)CC5)ccc4n3)ccc2s1 [Compound 176, 2-(2-methyl-1,3-benzothiazol-5-yl)-7-(4-methylpiperazin-1-yl)-4H-pyrido[1,2-a]pyrimidin-4-one] | *** (a fold increase between >1.35 and ≤1.5 is indicated by three stars (***)) | 214 to 218 °C | 0.3 to 1 µM | * (An EC1.5× for Smn protein expression between >3 μM and ≤10 μM is indicated by one star (*))
8 | Cc1nc2cc(-c3cc(=O)n4cc(N5CCCN(C)CC5)ccc4n3)ccc2s1 [Compound 177, 2-(2-methyl-1,3-benzothiazol-5-yl)-7-(4-methyl-1,4-diazepan-1-yl)-4H-pyrido[1,2-a]pyrimidin-4-one] | *** (a fold increase between >1.35 and ≤1.5 is indicated by three stars (***)) | 165 to 170 °C | 0.1 to 0.3 µM | 
9 | Cc1nc2cc(-c3cc(=O)n4cc(N5CCN6CCC[C@H]6C5)ccc4n3)ccc2s1 [Compound 178, 7-[(8aS)-hexahydropyrrolo[1,2-a]pyrazin-2(1H)-yl]-2-(2-methyl-1,3-benzothiazol-5-yl)-4H-pyrido[1,2-a]pyrimidin-4-one] | ** (a fold increase between >1.2 and ≤1.35 is indicated by two stars (**)) | 254 to 256 °C | 0.3 to 1 µM | 
10 | Cc1cn(-c2cc(=O)n3cc(N4CCN[C@@H](C)C4)ccc3n2)cn1 [Compound 180, 2-(4-methyl-1H-imidazol-1-yl)-7-[(3S)-3-methylpiperazin-1-yl]-4H-pyrido[1,2-a]pyrimidin-4-one] | **** (a fold increase between >1.5 and ≤1.65 is indicated by four stars (****)) | 204 to 206 °C | 1 to 3 µM | ** (an EC1.5× between >1 μM and ≤3 μM is indicated by two stars (**))
11 | CNCCNc1ccc2nc(-c3ccc(OC)c(OC)c3)cc(=O)n2c1 [Compound 181, 2-(3,4-dimethoxyphenyl)-7-{[2-(methylamino)ethyl]amino}-4H-pyrido[1,2-a]pyrimidin-4-one] | * (A maximum fold increase of ≤1.2 is indicated by one star (*)) | 135 to 138 °C | 1 to 3 µM | 
12 | COc1c(F)cc(-c2cc(=O)n3cc(N4CCNCC4)ccc3n2)cc1F [Compound 183, 2-(3,5-difluoro-4-methoxyphenyl)-7-(piperazin-1-yl)-4H-pyrido[1,2-a]pyrimidin-4-one] | ** (a fold increase between >1.2 and ≤1.35 is indicated by two stars (**)) | 167 to 169 °C | 1 to 3 µM | 
13 | COc1c(F)cc(-c2cc(=O)n3cc(N4CCN[C@@H](C)C4)ccc3n2)cc1F [Compound 184, 2-(3,5-difluoro-4-methoxyphenyl)-7-[(3S)-3-methylpiperazin-1-yl]-4H-pyrido[1,2-a]pyrimidin-4-one] | ** (a fold increase between >1.2 and ≤1.35 is indicated by two stars (**)) | 182 to 184 °C | 1 to 3 µM | 
14 | COc1ccc(-c2cc(=O)n3cc(N4CCC(N(C)C)CC4)ccc3n2)cc1F [Compound 185, 7-[4-(dimethylamino)piperidin-1-yl]-2-(3-fluoro-4-methoxyphenyl)-4H-pyrido[1,2-a]pyrimidin-4-one] | *** (a fold increase between >1.35 and ≤1.5 is indicated by three stars (***)) | 196 to 201 °C | < 0.1 µM | 
15 | COc1ccc(-c2cc(=O)n3cc(C4=CCNCC4)ccc3n2)cc1F [Compound 186, 2-(3-fluoro-4-methoxyphenyl)-7-(1,2,3,6-tetrahydropyridin-4-yl)-4H-pyrido[1,2-a]pyrimidin-4-one] | **** (a fold increase between >1.5 and ≤1.65 is indicated by four stars (****)) | 182 to 184 °C | < 0.1 µM | *** (an EC1.5× between >0.3 μM and ≤1 μM is indicated by three stars (***))
16 | C[C@H]1CN(c2ccc3nc(-c4cc(F)cc(Cl)c4)cc(=O)n3c2)CCN1 [Compound 189, 2-(3-chloro-5-fluorophenyl)-7-[(3S)-3-methylpiperazin-1-yl]-4H-pyrido[1,2-a]pyrimidin-4-one] | **** (a fold increase between >1.5 and ≤1.65 is indicated by four stars (****)) | 188 to 190 °C | 0.3 to 1 µM | *** (an EC1.5× between >0.3 μM and ≤1 μM is indicated by three stars (***))
17 | O=c1cc(-c2cc(F)cc(Cl)c2)nc2ccc(N3CCNCC3)cn12 [Compound 190, 2-(3-chloro-5-fluorophenyl)-7-(piperazin-1-yl)-4H-pyrido[1,2-a]pyrimidin-4-one] | **** (a fold increase between >1.5 and ≤1.65 is indicated by four stars (****)) | 180 to 184 °C | 0.3 to 1 µM | ** (an EC1.5× between >1 μM and ≤3 μM is indicated by two stars (**))
18 | Cc1nc2ccc(-c3cc(=O)n4cc(N5CCN[C@H](C)C5)ccc4n3)cc2o1 [Compound 193, 2-(2-methyl-1,3-benzoxazol-6-yl)-7-[(3R)-3-methylpiperazin-1-yl]-4H-pyrido[1,2-a]pyrimidin-4-one] | ***** (a fold increase >1.65 is indicated by five stars (*****)) | 175 to 177 °C | < 0.1 µM | **** (an EC1.5x≤0.3 μM is indicated by four stars (****))
19 | Cc1nc2ccc(-c3cc(=O)n4cc(N5CCNC(C)(C)C5)ccc4n3)cc2o1 [Compound 194, 7-(3,3-dimethylpiperazin-1-yl)-2-(2-methyl-1,3-benzoxazol-6-yl)-4H-pyrido[1,2-a]pyrimidin-4-one] | ***** (a fold increase >1.65 is indicated by five stars (*****)) | 160 to 162 °C | < 0.1 µM | **** (an EC1.5x≤0.3 μM is indicated by four stars (****))
